Measured values reported in PubChem BioAssay AID1963441 (Molecular Pharmacology Branch, DTP, NCI, 2024).

Tested on: NCI-H1876 complex spheroid growth, % test/control
Experiment: Anticancer human tumor NCI-H1876 cell line growth inhibition [Asc];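 further: compound exposure lasted 7 days starting three days after seeding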;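 on viability, T/C: 100% = DMSO vehicle control wells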
Settings: for IC50: curve of first compound; for viability, T/C: stronger effect = lower value
Procedure, shortened: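 Spheroid model: tumor line + HUVEC + hMSC. Single agents and combinations; top conc. at/near clinical Cmax (10 microM if undetermined), half-log dilutions. DMSO stocks at 800-fold test concentration.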

[1] = second compound 0.00316 µM, first compound 0.0316 µM
[2] = second compound 0.00316 µM, first compound 0.1 µM
[3] = second compound 0.00316 µM, first compound 0.316 µM
[4] = second compound 0.00316 µM, first compound 1 µM
[5] = second compound 0.00316 µM, first compound 3.16 µM
[6] = second compound 0.00316 µM, first compound 10 µM
[7] = second compound 0.01 µM, first compound 0.0316 µM
[8] = second compound 0.01 µM, first compound 0.1 µM
[9] = second compound 0.01 µM, first compound 0.316 µM
[10] = second compound 0.01 µM, first compound 1 µM
[11] = second compound 0.01 µM, first compound 3.16 µM
[12] = second compound 0.01 µM, first compound 10 µM
[13] = second compound 0.0316 µM, first compound 0.0316 µM
[14] = second compound 0.0316 µM, first compound 0.1 µM
[15] = second compound 0.0316 µM, first compound 0.316 µM
[16] = second compound 0.0316 µM, first compound 1 µM
[17] = second compound 0.0316 µM, first compound 3.16 µM
[18] = second compound 0.0316 µM, first compound 10 µM
[19] = second compound 0.1 µM, first compound 0.0316 µM
[20] = second compound 0.1 µM, first compound 0.1 µM
[21] = second compound 0.1 µM, first compound 0.316 µM
[22] = second compound 0.1 µM, first compound 1 µM
[23] = second compound 0.1 µM, first compound 3.16 µM
[24] = second compound 0.1 µM, first compound 10 µM
[25] = second compound 0.316 µM, first compound 0.0316 µM
[26] = second compound 0.316 µM, first compound 0.1 µM
[27] = second compound 0.316 µM, first compound 0.316 µM
[28] = second compound 0.316 µM, first compound 1 µM
[29] = second compound 0.316 µM, first compound 3.16 µM
[30] = second compound 0.316 µM, first compound 10 µM
[31] = second compound 1 µM, first compound 0.0316 µM
[32] = second compound 1 µM, first compound 0.1 µM
[33] = second compound 1 µM, first compound 0.316 µM
[34] = second compound 1 µM, first compound 1 µM
[35] = second compound 1 µM, first compound 3.16 µM
[36] = second compound 1 µM, first compound 10 µM
[37] = second compound 0.00316 µM, first compound 0.00949 µM
[38] = second compound 0.00316 µM, first compound 0.03 µM
[39] = second compound 0.00316 µM, first compound 0.0949 µM
[40] = second compound 0.00316 µM, first compound 0.3 µM
[41] = second compound 0.00316 µM, first compound 0.949 µM
[42] = second compound 0.00316 µM, first compound 3 µM
[43] = second compound 0.01 µM, first compound 0.00949 µM
[44] = second compound 0.01 µM, first compound 0.03 µM
[45] = second compound 0.01 µM, first compound 0.0949 µM
[46] = second compound 0.01 µM, first compound 0.3 µM
[47] = second compound 0.01 µM, first compound 0.949 µM
[48] = second compound 0.01 µM, first compound 3 µM
[49] = second compound 0.0316 µM, first compound 0.00949 µM
[50] = second compound 0.0316 µM, first compound 0.03 µM
[51] = second compound 0.0316 µM, first compound 0.0949 µM
[52] = second compound 0.0316 µM, first compound 0.3 µM
[53] = second compound 0.0316 µM, first compound 0.949 µM
[54] = second compound 0.0316 µM, first compound 3 µM
[55] = second compound 0.1 µM, first compound 0.00949 µM
[56] = second compound 0.1 µM, first compound 0.03 µM
[57] = second compound 0.1 µM, first compound 0.0949 µM
[58] = second compound 0.1 µM, first compound 0.3 µM
[59] = second compound 0.1 µM, first compound 0.949 µM
[60] = second compound 0.1 µM, first compound 3 µM
[61] = second compound 0.316 µM, first compound 0.00949 µM
[62] = second compound 0.316 µM, first compound 0.03 µM
[63] = second compound 0.316 µM, first compound 0.0949 µM
[64] = second compound 0.316 µM, first compound 0.3 µM
[65] = second compound 0.316 µM, first compound 0.949 µM
[66] = second compound 0.316 µM, first compound 3 µM
[67] = second compound 1 µM, first compound 0.00949 µM
[68] = second compound 1 µM, first compound 0.03 µM
[69] = second compound 1 µM, first compound 0.0949 µM
[70] = second compound 1 µM, first compound 0.3 µM
[71] = second compound 1 µM, first compound 0.949 µM
[72] = second compound 1 µM, first compound 3 µM

C#Cc1c(F)ccc2cc(O)cc(-c3ncc4c(N5CC6CCC(C5)N6)nc(OCC56CCCN5CC(F)C6)nc4c3F)c12 (stereo not drawn) + CNC(C)C(=O)NC1CN(S(=O)(=O)c2cccc(S(=O)(=O)N3CCC4CCC(C(=O)NC(c5ccccc5)c5ccccc5)N4C(=O)C(NC(=O)C(C)NC)C3)c2)CCC2CCC(C(=O)NC(c3ccccc3)c3ccccc3)N2C1=O
IC50 (second compound 0.00316 µM): > 10 µM
IC50 (second compound 0.01 µM): > 10 µM
IC50 (second compound 0.0316 µM): > 10 µM
IC50 (second compound 0.1 µM): > 10 µM
IC50 (second compound 0.316 µM): > 10 µM
IC50 (second compound 1 µM): > 10 µM
viability, T/C [1]: 101%
viability, T/C [2]: 88.2%
viability, T/C [3]: 103%
viability, T/C [4]: 90.3%
viability, T/C [5]: 93.5%
viability, T/C [6]: 86.7%
viability, T/C [7]: 96.9%
viability, T/C [8]: 92.3%
viability, T/C [9]: 101%
viability, T/C [10]: 92.9%
viability, T/C [11]: 91.8%
viability, T/C [12]: 89.3%
viability, T/C [13]: 105%
viability, T/C [14]: 88.6%
viability, T/C [15]: 101%
viability, T/C [16]: 93.9%
viability, T/C [17]: 102%
viability, T/C [18]: 95.7%
viability, T/C [19]: 106%
viability, T/C [20]: 99.4%
viability, T/C [21]: 104%
viability, T/C [22]: 94.6%
viability, T/C [23]: 94.5%
viability, T/C [24]: 82.8%
viability, T/C [25]: 109%
viability, T/C [26]: 101%
viability, T/C [27]: 89.8%
viability, T/C [28]: 108%
viability, T/C [29]: 107%
viability, T/C [30]: 96%
viability, T/C [31]: 90.3%
viability, T/C [32]: 89.8%
viability, T/C [33]: 98%
viability, T/C [34]: 106%
viability, T/C [35]: 103%
viability, T/C [36]: 92.2%

C=C(F)C(=O)N1CCN(c2nc(OCC3CCCN3C)nc3c2CCN(c2cccc4cccc(Cl)c24)C3)CC1CC#N (stereo not drawn) + CNC(C)C(=O)NC1CN(S(=O)(=O)c2cccc(S(=O)(=O)N3CCC4CCC(C(=O)NC(c5ccccc5)c5ccccc5)N4C(=O)C(NC(=O)C(C)NC)C3)c2)CCC2CCC(C(=O)NC(c3ccccc3)c3ccccc3)N2C1=O
IC50 (second compound 0.00316 µM): 5.58 µM
IC50 (second compound 0.01 µM): 5.6 µM
IC50 (second compound 0.0316 µM): 5.59 µM
IC50 (second compound 0.1 µM): 5.66 µM
IC50 (second compound 0.316 µM): 5.73 µM
IC50 (second compound 1 µM): 5.46 µM
viability, T/C [1]: 96.9%
viability, T/C [2]: 97.3%
viability, T/C [3]: 110%
viability, T/C [4]: 89.3%
viability, T/C [5]: 99%
viability, T/C [6]: 0.33%
viability, T/C [7]: 104%
viability, T/C [8]: 96.2%
viability, T/C [9]: 103%
viability, T/C [10]: 103%
viability, T/C [11]: 98.4%
viability, T/C [12]: 1.04%
viability, T/C [13]: 106%
viability, T/C [14]: 91.5%
viability, T/C [15]: 98.2%
viability, T/C [16]: 95.2%
viability, T/C [17]: 103%
viability, T/C [18]: 0.33%
viability, T/C [19]: 98.2%
viability, T/C [20]: 95.4%
viability, T/C [21]: 102%
viability, T/C [22]: 115%
viability, T/C [23]: 100%
viability, T/C [24]: 0.52%
viability, T/C [25]: 106%
viability, T/C [26]: 98.7%
viability, T/C [27]: 107%
viability, T/C [28]: 96.3%
viability, T/C [29]: 108%
viability, T/C [30]: 0.32%
viability, T/C [31]: 96.2%
viability, T/C [32]: 85.5%
viability, T/C [33]: 92.1%
viability, T/C [34]: 102%
viability, T/C [35]: 97.2%
viability, T/C [36]: 0.37%

CCN1C(C(=O)NC23CCC(C(=O)O)(CC2)CC3)C(c2cccc(Cl)c2F)C2(C(=O)Nc3cc(Cl)ccc32)C12CCCCC2 (stereo not drawn) + CNC(C)C(=O)NC1CN(S(=O)(=O)c2cccc(S(=O)(=O)N3CCC4CCC(C(=O)NC(c5ccccc5)c5ccccc5)N4C(=O)C(NC(=O)C(C)NC)C3)c2)CCC2CCC(C(=O)NC(c3ccccc3)c3ccccc3)N2C1=O
IC50 (second compound 0.00316 µM): > 3 µM
IC50 (second compound 0.01 µM): > 3 µM
IC50 (second compound 0.0316 µM): > 3 µM
IC50 (second compound 0.1 µM): > 3 µM
IC50 (second compound 0.316 µM): > 3 µM
IC50 (second compound 1 µM): > 3 µM
viability, T/C [37]: 115%
viability, T/C [38]: 98%
viability, T/C [39]: 111%
viability, T/C [40]: 101%
viability, T/C [41]: 123%
viability, T/C [42]: 107%
viability, T/C [43]: 110%
viability, T/C [44]: 99.9%
viability, T/C [45]: 104%
viability, T/C [46]: 101%
viability, T/C [47]: 120%
viability, T/C [48]: 105%
viability, T/C [49]: 105%
viability, T/C [50]: 101%
viability, T/C [51]: 115%
viability, T/C [52]: 104%
viability, T/C [53]: 132%
viability, T/C [54]: 109%
viability, T/C [55]: 92.5%
viability, T/C [56]: 111%
viability, T/C [57]: 101%
viability, T/C [58]: 102%
viability, T/C [59]: 122%
viability, T/C [60]: 103%
viability, T/C [61]: 104%
viability, T/C [62]: 102%
viability, T/C [63]: 98.3%
viability, T/C [64]: 105%
viability, T/C [65]: 131%
viability, T/C [66]: 107%
viability, T/C [67]: 112%
viability, T/C [68]: 91.8%
viability, T/C [69]: 109%
viability, T/C [70]: 110%
viability, T/C [71]: 128%
viability, T/C [72]: 97.9%

Cc1nc(N2CCC3(CC2)COC(C)C3N)c(CO)nc1Sc1ccnc(N)c1Cl (stereo not drawn) + CNC(C)C(=O)NC1CN(S(=O)(=O)c2cccc(S(=O)(=O)N3CCC4CCC(C(=O)NC(c5ccccc5)c5ccccc5)N4C(=O)C(NC(=O)C(C)NC)C3)c2)CCC2CCC(C(=O)NC(c3ccccc3)c3ccccc3)N2C1=O
IC50 (second compound 0.00316 µM): > 3 µM
IC50 (second compound 0.01 µM): > 3 µM
IC50 (second compound 0.0316 µM): > 3 µM
IC50 (second compound 0.1 µM): > 3 µM
IC50 (second compound 0.316 µM): > 3 µM
IC50 (second compound 1 µM): > 3 µM
viability, T/C [37]: 100%
viability, T/C [38]: 92.7%
viability, T/C [39]: 91.2%
viability, T/C [40]: 80.7%
viability, T/C [41]: 92.6%
viability, T/C [42]: 79.8%
viability, T/C [43]: 91.7%
viability, T/C [44]: 91.9%
viability, T/C [45]: 92.7%
viability, T/C [46]: 81.2%
viability, T/C [47]: 85.7%
viability, T/C [48]: 92.1%
viability, T/C [49]: 94.4%
viability, T/C [50]: 86.1%
viability, T/C [51]: 98.8%
viability, T/C [52]: 84.8%
viability, T/C [53]: 87.6%
viability, T/C [54]: 89%
viability, T/C [55]: 93.9%
viability, T/C [56]: 88.4%
viability, T/C [57]: 82.9%
viability, T/C [58]: 86.5%
viability, T/C [59]: 86.4%
viability, T/C [60]: 84.3%
viability, T/C [61]: 94%
viability, T/C [62]: 93.8%
viability, T/C [63]: 87.9%
viability, T/C [64]: 92.7%
viability, T/C [65]: 85.9%
viability, T/C [66]: 77.2%
viability, T/C [67]: 94%
viability, T/C [68]: 91.8%
viability, T/C [69]: 94.4%
viability, T/C [70]: 90.5%
viability, T/C [71]: 84.5%
viability, T/C [72]: 74.8%
